Values of other authors, collected in patent US20100278900A1, “CHLORINE DIOXIDE BASED GUM AND CANDY” (BASF Corporation, priority 2009, published 2010).

Settings: in the absence of traditional abrasives

In the case of [O][Cl+][O-] [chlorine dioxide], the polishing effect is given as “polishing effect”.
